Test results as given in patent US7892350B2, “Sacrificial agents for fly ash concrete” (Boral Material Technologies Inc., priority 2003, dated 2011).
Like-named read-outs stand apart in the source and are kept apart here.

Experiments:
[1] = Air entrainment in mortars (ASTM C185-88); details: for decrease of variability (RSD values): fly ash mortars, Air 30 combined with the SA versus Air 30 alone
Method: Air entrainment were measured in mortars containing portland cement only (control), or a combination of portland cement and fly ash in the ratio 70:30;
The mix compositions are given in the Table below and the measurements were performed according to standard protocols described in ASTM C185-88

[2] = Second sacrificial agent testing protocol: paste air measurements with DDBS (0.0125 wt %) and rating; details: for B1 + 0.0125% DDBS + 0.05% SA (air entrainment) / B1 + 0.0125% DDBS + 0.1% SA (air entrainment): B1 FA/cement paste; for PCA + 0.1% SA (level of air entrainment by the candidate sacrificial agent): Portland cement paste (PCA); for SA Rating (0-4): sacrificial agent overall rating index; for Overall performance rating (second protocol rating): key: 0: Fail; 1: Poor; 2: Good; 3: Preferred; 4: Most preferred; for SA Rating (0-4): key: 0: Fail; 1: Poor; 2: Good; 3: Preferred; 4: Most preferred
How it was run: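 Air entrainment was measured in cement pastes of fixed composition and fluidity. The candidate agent was tested alone at 0.1 wt % in a cement-only paste. It was also tested at 0.05 and 0.1 wt % in a fly ash (B1)-cement paste with DDBS, where air recovery was calculated against the same paste without agent.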

[3] = Hansch, C. et al. (1995), cited from earlier work
[4] = 30:70 fly ash B1 (LOI 5.01%):cement mortar, 0.002 wt % Air 30 alone or +0.05 wt % SA
[5] = 30:70 fly ash B1 (LOI 5.01%):cement mortar, 0.005 wt % Air 40 alone or +0.05 wt % SA
[6] = 30:70 fly ash C1 (LOI 0.70%):cement mortar, 0.002 wt % Air 30 alone or +0.05 wt % SA
[7] = 30:70 fly ash C1 (LOI 0.70%):cement mortar, 0.005 wt % Air 40 alone or +0.05 wt % SA
[8] = 30:70 fly ash C2 (LOI 3.04%):cement mortar, 0.002 wt % Air 30 alone or +0.05 wt % SA
[9] = 30:70 fly ash C2 (LOI 3.04%):cement mortar, 0.005 wt % Air 40 alone or +0.05 wt % SA
[10] = 30:70 fly ash C3 (LOI 2.54%):cement mortar, 0.002 wt % Air 30 alone or +0.05 wt % SA
[11] = 30:70 fly ash C3 (LOI 2.54%):cement mortar, 0.005 wt % Air 40 alone or +0.05 wt % SA
[12] = 30:70 fly ash D (LOI […]):cement mortar, 0.002 wt % Air 30 alone or +0.05 wt % SA
[13] = 30:70 fly ash D (LOI […]):cement mortar, 0.005 wt % Air 40 alone or +0.05 wt % SA
[14] = 30:70 fly ash H1 (LOI 8.45%):cement mortar, 0.002 wt % Air 30 alone or +0.05 wt % SA
[15] = 30:70 fly ash H1 (LOI 8.45%):cement mortar, 0.005 wt % Air 40 alone or +0.05 wt % SA
[16] = 30:70 fly ash M1 (LOI […]):cement mortar, 0.002 wt % Air 30 alone or +0.05 wt % SA
[17] = 30:70 fly ash M1 (LOI […]):cement mortar, 0.005 wt % Air 40 alone or +0.05 wt % SA
[18] = 30:70 fly ash M2 (LOI 8.78%):cement mortar, 0.002 wt % Air 30 alone or +0.05 wt % SA
[19] = 30:70 fly ash M2 (LOI 8.78%):cement mortar, 0.005 wt % Air 40 alone or +0.05 wt % SA
[20] = 30:70 fly ash M3 (LOI 3.15%):cement mortar, 0.002 wt % Air 30 alone or +0.05 wt % SA
[21] = 30:70 fly ash M3 (LOI 3.15%):cement mortar, 0.005 wt % Air 40 alone or +0.05 wt % SA
[22] = 30:70 fly ash R (LOI 0.17%):cement mortar, 0.002 wt % Air 30 alone or +0.05 wt % SA
[23] = 30:70 fly ash R (LOI 0.17%):cement mortar, 0.005 wt % Air 40 alone or +0.05 wt % SA
[24] = PCA cement mortar, no fly ash, 0.0017 wt % Air 30 alone or +0.05 wt % SA
[25] = PCA cement mortar, no fly ash, 0.004 wt % Air 40 alone or +0.05 wt % SA
[26] = over the fly ash mortars of Table 12, 0.002 wt % Air 30 alone or +0.05 wt % SA
[27] = over the fly ash mortars of Table 13, 0.005 wt % Air 40 alone or +0.05 wt % SA

`OCCOc1ccccc1` [EGPE, Ethylene glycol phenyl ether] gave an Air entrainment [1, 4] of 3.6, an Air entrainment ([1]; 30:70 fly ash B1 (LOI 5.01%):cement mortar, 0.005 wt % Air 40 +0.1 wt % EGPE) of 9.3 and an Air entrainment [1, 5] of 5.4. The Air entrainment [1, 6] was 4.7, the Air entrainment ([1]; 30:70 fly ash C1 (LOI 0.70%):cement mortar, 0.005 wt % Air 40 +0.1 wt % EGPE) was 12.6 and the Air entrainment [1, 7] was 6.6. It also gave an Air entrainment [1, 8] of 6.9, an Air entrainment ([1]; 30:70 fly ash C2 (LOI 3.04%):cement mortar, 0.005 wt % Air 40 +0.1 wt % EGPE) of 12.4 and an Air entrainment [1, 9] of 8.8. The Air entrainment [1, 10] was 5.9, the Air entrainment ([1]; 30:70 fly ash C3 (LOI 2.54%):cement mortar, 0.005 wt % Air 40 +0.1 wt % EGPE) was 9.8 and the Air entrainment [1, 11] was 8.0. The Air entrainment [1, 12] was 14.9, the Air entrainment ([1]; 30:70 fly ash D (LOI […]):cement mortar, 0.005 wt % Air 40 +0.1 wt % EGPE) was 13.2 and the Air entrainment [1, 13] was 12.8. It also gave an Air entrainment [1, 14] of 3.1, an Air entrainment ([1]; 30:70 fly ash H1 (LOI 8.45%):cement mortar, 0.005 wt % Air 40 +0.1 wt % EGPE) of 5.7 and an Air entrainment [1, 15] of 3.1. For the same compound, the Air entrainment [1, 16] was 5.4, the Air entrainment ([1]; 30:70 fly ash M1 (LOI […]):cement mortar, 0.005 wt % Air 40 +0.1 wt % EGPE) was 12.7 and the Air entrainment [1, 17] was 8.0. For the same compound, the Air entrainment [1, 18] was 2.8, the Air entrainment ([1]; 30:70 fly ash M2 (LOI 8.78%):cement mortar, 0.005 wt % Air 40 +0.1 wt % EGPE) was 6.7 and the Air entrainment [1, 19] was 4.9. The Air entrainment [1, 20] was 7.6, the Air entrainment ([1]; 30:70 fly ash M3 (LOI 3.15%):cement mortar, 0.005 wt % Air 40 +0.1 wt % EGPE) was 18.3 and the Air entrainment [1, 21] was 10.2. The Air entrainment [1, 22] was 13.5, the Air entrainment ([1]; 30:70 fly ash R (LOI 0.17%):cement mortar, 0.005 wt % Air 40 +0.1 wt % EGPE) was 15.2 and the Air entrainment [1, 23] was 13.5. For the same compound, the Air entrainment [1, 24] was 14.0, the Air entrainment ([1]; PCA cement mortar, no fly ash, 0.004 wt % Air 40 +0.1 wt % EGPE) was 16.2 and the Air entrainment [1, 25] was 14.9. For the same compound, the “decrease of variability (RSD values)” value [1] was “approximately 50%”, the “Average of air entrained” value [1, 26] was 6.8% and the “Average of air entrained” value ([1]; over the fly ash mortars of Table 13, 0.005 wt % Air 40 +0.1 wt % EGPE) was 12%. The “Average of air entrained” value [1, 27] was 8.1%, the “Overall performance rating (second protocol rating)” value [2] was 4 and the “B1 + 0.0125% DDBS + 0.05% SA (air entrainment)” value [2] was 6.9. The “B1 + 0.0125% DDBS + 0.1% SA (air entrainment)” value [2] was 8.1, the “PCA + 0.1% SA (level of air entrainment by the candidate sacrificial agent)” value [2] was 1.5 and the “SA Rating (0-4)” value [2] was 4. For the same compound, the “Experimental LogKow” value [3] was 1.16 and the “Experimental LogKow” value ([3]; listed as 2-Phenoxyethanol) was “Experimental LogKow: 1.16”.
Compound `O=S(=O)([O-])c1ccc2ccccc2c1.[Na+]` [NS, Sodium 2-Naphthalene sulfonate] has an Air entrainment [1, 4] of 4.0, an Air entrainment [1, 5] of 5.6 and an Air entrainment [1, 6] of 4.3. The Air entrainment [1, 7] was 7.2, the Air entrainment [1, 8] was 5.9 and the Air entrainment [1, 9] was 7.5. It also gave an Air entrainment [1, 10] of 4.8, an Air entrainment [1, 11] of 7.8 and an Air entrainment [1, 12] of 11.4. It also gave an Air entrainment [1, 13] of 12.6, an Air entrainment [1, 14] of 2.7 and an Air entrainment [1, 15] of 3.0. The Air entrainment [1, 16] was 5.8, the Air entrainment [1, 17] was 8.2 and the Air entrainment [1, 18] was 2.8. The Air entrainment [1, 19] was 5.0, the Air entrainment [1, 20] was 6.9 and the Air entrainment [1, 21] was 10.0. For the same compound, the Air entrainment [1, 22] was 12.0, the Air entrainment [1, 23] was 13.7 and the Air entrainment [1, 24] was 13.4. The Air entrainment [1, 25] was 14.8, the “decrease of variability (RSD values)” value [1] was “approximately 50%” and the “Average of air entrained” value [1, 26] was 6.1%. The “Average of air entrained” value [1, 27] was 8.0%, the “Overall performance rating (second protocol rating)” value [2] was 3 and the “B1 + 0.0125% DDBS + 0.05% SA (air entrainment)” value [2] was 4.4. The “B1 + 0.0125% DDBS + 0.1% SA (air entrainment)” value [2] was 5.3, the “PCA + 0.1% SA (level of air entrainment by the candidate sacrificial agent)” value [2] was 1.0 and the “SA Rating (0-4)” value [2] was 3.
